Experimental data from patent US6995148B2, “Adenosine cyclic ketals: novel adenosine analogues for pharmacotherapy” (University of Pittsburgh, priority 2001, dated 2006).

Experiments:
anesthetized rat = assay: Hemodynamic effects (MABP and heart rate) of intravenous bolus in anesthetized rat; format: in vivo; conditions: bolus injection of 0.2 mg/kg
Protocol: Preliminary experiments were conducted to evaluate the hemodynamic effects of nonamethonium ACK. Adult male Sprague-Dawley rats utilized in these studies were purchased from Charles River Laboratories (Wilmington, Mass.) and maintained in the University of Pittsburgh Animal Facility. Rats were provided free access to Prolab Isopro RMH 3000 rodent diet (PMI Nutritional Intl., Richmond, Ind.) a nd tap water. The rats weighed approximately 300 grams at the time of study.
Rats were anesthetized with Inactin (100 mg/kg, intraperitoneally or i.p.) and placed on a Deltaphase Isothermal Pad (Braintree Scientific, Inc.; Braintree, Mass.). Body temperature was monitored with a digital rectal probe thermometer (Physioltemp Instruments, Inc.; Clifton, N.J.) and maintained at 37° C. by adjusting a heat lamp above the animal. The trachea was cannulated with polyethylene (PE)- 240 to maintain airway patency, a PE-50 catheter was inserted into the left jugular vein and an intravenous infusion of 0.9% saline was initiated at 80 μl/min. A left carotid artery catheter (PE-50) was inserted and was connected to a digital blood pressure analyzer (Micro-Med; Louisville, Ky.) for continuous measurement of mean arterial blood pressure (MABP) and heart rate. The digital blood pressure analyzer was set to time-average MABP and heart rate at one-minute (slow speed) or two-second (high speed) intervals.
After a 30 minute post-operation rest period, the rats received bolus injections of either adenosine or nonamethonium ACK. Some rats were pretreated with a bolus of 1,3-dipropyl-p-sulfophenylxanthine (DPSPX, a well-characterized adenosine receptor antagonist) followed by a constant rate infusion of DPSPX at 0.15 mg/80 μl/min. It has previously been shown that this dosing regimen with DPSPX effectively blocks adenosine receptors in the rat in vivo.

[1] = tested on: patients with acute anterior myocardial infarction; conditions: three-hour intravenous infusion; cited from earlier work
A2A receptors = conditions: cited from earlier work

Row | Compound | time to recovery of MABP (anesthetized rat) | time to recovery of heart rate (anesthetized rat) | reduction of MABP (anesthetized rat; FIG. 2A) [mm Hg] | reduction of heart rate (anesthetized rat; FIG. 2B) [beats per minute] | reduction of infarct size [1] [%] | affinity for A2A receptors (A2A receptors)
1 | Nc1ncnc2c1ncn2[C@@H]1O[C@H](CO)[C@@H](O)[C@H]1O [adenosine] | approximately 500 seconds | approximately 100 seconds | 76 | 158 | 66 | –
2 | CCNC(=O)[C@H]1O[C@@H](n2cnc3c(N)nc(NCCc4ccc(CCC(=O)O)cc4)nc32)[C@H](O)[C@@H]1O [CGS 21680, 2-[4-[(2-carboxyethyl)phenyl]ethylamino]-5′-N-ethylcarboxamidoadenosine] | – | – | – | – | – | high affinity
